Measured values: patent US20230233569A1 (Revolution Medicines, Inc., priority 2020, published 2023)
pEC50, pIC50: −log10 of the molar value.

Assays:
[1] = system: P70S6K (Thr389) phosphorylation (mTORC1) in MDA-MB-468 cells; experiment: Cell based AlphaLISA assay, mTOR kinase cellular assay: inhibition of p-P70S6K (T389) in MDA-MB-468 cells; conditions: Homo sapiens, read-out: pIC50 for Inhibition of mTORC1 and mTORC2 Substarte Phosphorylation p-P70S6K-(T389) (converted)
Experimental: Cell Based AlphaLISA Assays for Determining IC50 For Inhibition of P-Akt (S473), P-4E-BP1 (T37/46), and P-P70S6K (T389) in MDA-MB-468 Cells
mTOR Kinase Cellular Assay
To measure functional activity of mTORC1 and mTORC2 in cells the phosphorylation of 4EBP1 (Thr37/46) and P70S6K (Thr389), and AKT1/2/3 (Ser473) was monitored using AlphaLisa SureFire Ultra Kits (Perkin Elmer). MDA-MB-468 cells (ATCC® HTB-132) were cultured in 96-well tissue culture plates and treated with compounds in the disclosure at concentrations varying from 0.017-1,000 nM for two to four hours at 37° C. Incubations were terminated by removal of the assay buffer and addition of lysis buffer provided with the assay kit. Samples were processed according to the manufacturer's instructions. The Alpha signal from the respective phosphoproteins was measured in duplicate using a microplate reader (Envision, Perkin-Elmer or Spectramax M5, Molecular Devices). Inhibitor concentration response curves were analyzed using normalized IC50 regression curve fitting with control based normalization.

[2] = system: AKT1/2/3 (Ser473) phosphorylation (mTORC2) in MDA-MB-468 cells; experiment: Cell based AlphaLISA assay, mTOR kinase cellular assay: inhibition of p-Akt (S473) in MDA-MB-468 cells; conditions: Homo sapiens, read-out: pIC50 for Inhibition of mTORC1 and mTORC2 Substarte Phosphorylation p-AKT1/2/3-(S473) (converted)
Outline: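 MDA-MB-468 cells treated with compound at 0.017-1,000 nM for two to four hours at 37° C, then lysed. Phospho-AKT1/2/3 S473, 4EBP1 T37/46 and P70S6K T389 quantified by AlphaLISA SureFire Ultra in duplicate; IC50 from normalized regression with control-based normalization.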

NCI-H358 (K-Ras G12C) = experiment: CellTiter-Glo cell viability assay; format: cell-based; conditions: Homo sapiens, NCI-H358, 120 h, read-out: H358 Cell Viability assay data IC50, K-Ras G12C, 5-day treatment
Outline: (§1)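 Percent-of-DMSO luminescence values (CellTiter-Glo, day 5, plates equilibrated ~30 minutes at ambient temperature) were curve-fitted using a 4-parameter logistic equation; compounds had been added straight into wells containing the cells.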

AsPC-1 (K-Ras G12D) [3] = experiment: CellTiter-Glo cell viability assay; format: cell-based; conditions: Homo sapiens, ASPC1, 120 h, read-out: AsPC-1 Cell Viability assay data IC50, K-Ras G12D, 5-day treatment
Outline: as §1

KRAS G12C = KRAS G12C (Homo sapiens, UniProt P01116+P62937, G12C); experiment: Ras-Raf disruption / FRET / MOA assay (BRAF RBD); format: biochemical; conditions: KRAS G12C FRET data IC50, Ras-Raf disruption, with Cyclophilin A
Chain of KRAS G12C (P01116 1-169 isoform P01116-2 G12C limits assumed): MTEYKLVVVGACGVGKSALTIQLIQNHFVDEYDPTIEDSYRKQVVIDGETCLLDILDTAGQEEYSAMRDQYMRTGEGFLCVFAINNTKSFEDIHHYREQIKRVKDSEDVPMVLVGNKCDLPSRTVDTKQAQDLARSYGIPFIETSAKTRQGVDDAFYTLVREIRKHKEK
Chain of KRAS G12C (P62937 whole entry): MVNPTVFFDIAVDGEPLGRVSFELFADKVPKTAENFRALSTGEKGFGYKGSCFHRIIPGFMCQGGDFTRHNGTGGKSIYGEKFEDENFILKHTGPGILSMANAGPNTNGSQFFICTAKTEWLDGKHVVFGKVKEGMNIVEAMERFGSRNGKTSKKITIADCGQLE
Outline: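 TR-FRET read-out after 1.5 h with anti-His Eu-W1024 (10 nM) and anti-GST APC (50 nM), following 3 h at 25 °C of compound (top 30 μM, 3-fold, 10 points) with 25 μM Cyclophilin A, 12.5 nM GMPPNP-loaded K-Ras G12C and 50 nM BRAF RBD; IC50 reported.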

NRAS Q61R = NRAS Q61R (Homo sapiens, UniProt P01111+P62937, Q61R); experiment: Ras-Raf disruption / FRET / MOA assay (BRAF RBD); format: biochemical
Chain of NRAS Q61R (P01111 whole entry Q61R): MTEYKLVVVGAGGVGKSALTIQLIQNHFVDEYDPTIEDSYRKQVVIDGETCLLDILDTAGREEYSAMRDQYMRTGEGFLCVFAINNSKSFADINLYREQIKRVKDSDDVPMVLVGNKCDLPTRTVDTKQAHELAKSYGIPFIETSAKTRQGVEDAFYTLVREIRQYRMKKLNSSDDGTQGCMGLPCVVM
Chain of NRAS Q61R (P62937 whole entry): as the sequence (P62937 whole entry) above
Outline: (§2)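 Compound-induced Ras–Cyclophilin A ternary complex disrupting BRAF RBD binding, read as IC50 from reduced TR-FRET ratio relative to DMSO. Final: Ras-GMPPNP 12.5 nM, BRAF RBD 50 nM, Cyclophilin A 25 μM, top compound 30 μM (3-fold, 10 points); 3 h at 25 °C, then 1.5 h with detection antibodies.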

KRAS G12V = KRAS G12V (Homo sapiens, UniProt P01116+P62937, G12V); experiment: Ras-Raf disruption / FRET / MOA assay (BRAF RBD); format: biochemical; conditions: KRAS G12V FRET data IC50, Ras-Raf disruption, with Cyclophilin A
Chain of KRAS G12V (P01116 1-169 isoform P01116-2 G12V limits assumed): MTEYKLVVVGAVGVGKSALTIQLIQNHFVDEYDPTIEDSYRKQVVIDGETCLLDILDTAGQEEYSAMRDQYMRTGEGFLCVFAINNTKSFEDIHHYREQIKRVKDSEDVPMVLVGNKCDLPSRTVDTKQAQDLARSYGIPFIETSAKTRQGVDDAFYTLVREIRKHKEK
Chain of KRAS G12V (P62937 whole entry): as the sequence (P62937 whole entry) above
Outline: as §2

NRAS WT = NRAS WT (Homo sapiens, UniProt P01111+P62937); experiment: Ras-Raf disruption / FRET / MOA assay (BRAF RBD); format: biochemical
Chain of NRAS WT (P01111 whole entry): as the sequence (P01111 whole entry Q61R) above, with R61Q counted along it
Chain of NRAS WT (P62937 whole entry): as the sequence (P62937 whole entry) above
Outline: as §2

KRAS G13C = KRAS G13C (Homo sapiens, UniProt P01116+P62937, G13C); experiment: Ras-Raf disruption / FRET / MOA assay (BRAF RBD); format: biochemical; conditions: KRAS G13C FRET data IC50, Ras-Raf disruption, with Cyclophilin A
Chain of KRAS G13C (P01116 1-169 isoform P01116-2 G13C limits assumed): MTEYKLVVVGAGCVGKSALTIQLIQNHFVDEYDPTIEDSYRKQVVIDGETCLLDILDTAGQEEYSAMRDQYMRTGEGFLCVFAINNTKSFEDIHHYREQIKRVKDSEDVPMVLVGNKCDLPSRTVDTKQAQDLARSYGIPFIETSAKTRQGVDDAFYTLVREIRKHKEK
Chain of KRAS G13C (P62937 whole entry): as the sequence (P62937 whole entry) above
Outline: as §2

NRAS Q61K = NRAS Q61K (Homo sapiens, UniProt P01111+P62937, Q61K); experiment: Ras-Raf disruption / FRET / MOA assay (BRAF RBD); format: biochemical
Chain of NRAS Q61K (P01111 whole entry Q61K): as the sequence (P01111 whole entry Q61R) above, with R61K counted along it
Chain of NRAS Q61K (P62937 whole entry): as the sequence (P62937 whole entry) above
Outline: as §2

KRAS G12D = KRAS G12D (Homo sapiens, UniProt P01116+P62937, G12D); experiment: Ras-Raf disruption / FRET / MOA assay (BRAF RBD); format: biochemical; conditions: KRAS G12D FRET data IC50, Ras-Raf disruption, with Cyclophilin A
Chain of KRAS G12D (P01116 1-169 isoform P01116-2 G12D limits assumed): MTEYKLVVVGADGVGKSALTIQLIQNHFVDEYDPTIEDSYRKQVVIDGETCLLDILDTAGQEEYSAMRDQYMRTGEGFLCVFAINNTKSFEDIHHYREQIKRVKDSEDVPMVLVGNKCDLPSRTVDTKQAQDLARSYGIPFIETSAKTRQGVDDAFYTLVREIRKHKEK
Chain of KRAS G12D (P62937 whole entry): as the sequence (P62937 whole entry) above
Outline: as §2

KRAS G12S = KRAS G12S (Homo sapiens, UniProt P01116+P62937, G12S); experiment: Ras-Raf disruption / FRET / MOA assay (BRAF RBD); format: biochemical; conditions: KRAS G12S FRET data IC50, Ras-Raf disruption, with Cyclophilin A
Chain of KRAS G12S (P01116 1-169 isoform P01116-2 G12S limits assumed): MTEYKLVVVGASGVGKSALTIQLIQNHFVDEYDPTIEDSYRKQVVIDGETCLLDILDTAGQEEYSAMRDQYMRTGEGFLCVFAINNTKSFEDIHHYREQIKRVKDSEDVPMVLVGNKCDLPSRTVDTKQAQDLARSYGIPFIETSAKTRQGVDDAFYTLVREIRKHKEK
Chain of KRAS G12S (P62937 whole entry): as the sequence (P62937 whole entry) above
Outline: as §2

KRAS WT = KRAS WT (Homo sapiens, UniProt P01116+P62937); experiment: Ras-Raf disruption / FRET / MOA assay (BRAF RBD); format: biochemical; conditions: KRAS WT FRET data IC50, Ras-Raf disruption, with Cyclophilin A
Chain of KRAS WT (P01116 1-169 isoform P01116-2 limits assumed): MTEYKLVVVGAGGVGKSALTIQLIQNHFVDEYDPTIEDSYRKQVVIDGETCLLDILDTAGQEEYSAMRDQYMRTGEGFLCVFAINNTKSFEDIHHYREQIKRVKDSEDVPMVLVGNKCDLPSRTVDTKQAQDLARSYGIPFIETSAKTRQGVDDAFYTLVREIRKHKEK
Chain of KRAS WT (P62937 whole entry): as the sequence (P62937 whole entry) above
Outline: as §2

KRAS Q61H = KRAS Q61H (Homo sapiens, UniProt P01116+P62937, Q61H); experiment: Ras-Raf disruption / FRET / MOA assay (BRAF RBD); format: biochemical
Chain of KRAS Q61H (P01116 1-169 isoform P01116-2 Q61H limits assumed): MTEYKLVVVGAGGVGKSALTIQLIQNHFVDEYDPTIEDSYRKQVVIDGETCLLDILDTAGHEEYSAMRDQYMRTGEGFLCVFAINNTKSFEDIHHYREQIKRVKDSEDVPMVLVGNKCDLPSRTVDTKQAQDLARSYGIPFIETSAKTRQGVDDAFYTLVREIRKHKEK
Chain of KRAS Q61H (P62937 whole entry): as the sequence (P62937 whole entry) above
Outline: as §2

KRAS G13D = KRAS G13D (Homo sapiens, UniProt P01116+P62937, G13D); experiment: Ras-Raf disruption / FRET / MOA assay (BRAF RBD); format: biochemical; conditions: KRAS G13D FRET data IC50, Ras-Raf disruption, with Cyclophilin A
Chain of KRAS G13D (P01116 1-169 isoform P01116-2 G13D limits assumed): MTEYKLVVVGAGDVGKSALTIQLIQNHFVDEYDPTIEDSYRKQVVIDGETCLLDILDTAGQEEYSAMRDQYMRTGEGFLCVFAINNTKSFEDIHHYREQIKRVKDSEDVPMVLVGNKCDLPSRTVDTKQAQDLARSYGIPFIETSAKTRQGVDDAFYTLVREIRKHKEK
Chain of KRAS G13D (P62937 whole entry): as the sequence (P62937 whole entry) above
Outline: as §2

NRAS G12C = NRAS G12C (Homo sapiens, UniProt P01111+P62937, G12C); experiment: Ras-Raf disruption / FRET / MOA assay (BRAF RBD); format: biochemical; conditions: NRAS G12C FRET data IC50, NRAS G12C
Chain of NRAS G12C (P01111 whole entry G12C): as the sequence (P01111 whole entry Q61R) above, with G12C, R61Q counted along it
Chain of NRAS G12C (P62937 whole entry): as the sequence (P62937 whole entry) above
Outline: as §2

AsPC-1 (K-Ras G12D) [4] = experiment: Potency assay: pERK; format: cell-based; conditions: Homo sapiens, ASPC1, read-out: pERK EC50

Row | SMILES | IC50 [1] [µM] | IC50 [2] [µM] | pIC50 (NCI-H358 (K-Ras G12C)) | pIC50 (AsPC-1 (K-Ras G12D) [3]) | pIC50 (KRAS G12C) | pIC50 (NRAS Q61R) | pIC50 (KRAS G12V) | pIC50 (NRAS WT) | pIC50 (KRAS G13C) | pIC50 (NRAS Q61K) | pIC50 (KRAS G12D) | pIC50 (KRAS G12S) | pIC50 (KRAS WT) | pIC50 (KRAS Q61H) | pIC50 (KRAS G13D) | pIC50 (NRAS G12C) | pEC50 (AsPC-1 (K-Ras G12D) [4])
1 | CO[C@H]1C[C@@H]2CC[C@@H](C)[C@@](O)(O2)C(=O)C(=O)N2CCCC[C@H]2C(=O)O[C@H]([C@H](C)C[C@@H]2CC[C@@H](OC(=O)NCc3cnc(N4CCN(c5ncc(C(=O)N6CCN(c7ncc(C(=O)N8CCc9cc(Cn%10nc(-c%11cnc%12[nH]ccc%12c%11)c%11c(N)ncnc%11%10)ccc9C8)cn7)CC6)cn5)CC4)nc3)[C@H](OC)C2)CC(=O)[C@H](C)/C=C(\C)[C@@H](O)[C@@H](OC)C(=O)[C@H](C)C[C@H](C)/C=C/C=C/C=C/1C [Example 61] | ≤ 0.001 | > 1 | – | – | – | – | – | – | – | – | – | – | – | – | – | – | –
2 | CCn1c(-c2cccnc2[C@H](C)OC)c2c3cc(ccc31)-c1cc(O)cc(c1)C[C@H](NC(=O)[C@H](C(C)C)N(C)C(=O)CN(C)C(=O)[C@@H]1N[C@H]1C1COC1)C(=O)N1CCC[C@H](N1)C(=O)OCC(C)(C)C2 [Example 283] | – | – | 7.00 to 8.00 | 6.00 to 7.00 | 7.00 to 8.00 | 6.00 to 7.00 | 7.00 to 8.00 | 7.00 to 8.00 | > 8.00 | 6.00 to 7.00 | 7.00 to 8.00 | 7.00 to 8.00 | 7.00 to 8.00 | 7.00 to 8.00 | 7.00 to 8.00 | 7.00 to 8.00 | > 5.30
3 | CCn1c(-c2cc(N3CCN(C)CC3)cnc2[C@H](C)OC)c2c3cc(ccc31)-c1cc(O)cc(c1)C[C@H](NC(=O)[C@H](C1CCCC1)N(C)C(=O)CN(C)C(=O)[C@H]1CN1)C(=O)N1CCC[C@H](N1)C(=O)OCC(C)(C)C2 [Example 209, (2R)—N-(2-(((1S)-1-cyclopentyl-2-(((6^3S,4S)-1^1-ethyl-2^5-hydroxy-1^2-(2-((S)-1-methoxyethyl)-5-(4-methylpiperazin-1-yl)pyridin-3-yl)-10,10-dimethyl-5,7-dioxo-6^1,6^2,6^3,6^4,6^5,6^6-hexahydro-1^1H-8-oxa-1(5,3)-indola-6(1,3)-pyridazina-2(1,3)-benzenacycloundecaphane-4-yl)amino)-2-oxoethyl)(methyl)amino)-2-oxoethyl)-N-methylaziridine-2-carboxamide] | – | – | > 8.00 | > 8.00 | > 8.00 | 7.00 to 8.00 | 7.00 to 8.00 | 7.00 to 8.00 | > 8.00 | 6.00 to 7.00 | 7.00 to 8.00 | 7.00 to 8.00 | 7.00 to 8.00 | > 8.00 | 7.00 to 8.00 | > 8.00 | > 5.30
4 | CCn1c(-c2cccnc2[C@H](C)OC)c2c3cc(ccc31)-c1cc(O)cc(c1)C[C@H](NC(=O)[C@H](C(C)C)N(C)C(=O)CN(C)C(=O)[C@@H]1CN1C1COC1)C(=O)N1CCC[C@H](N1)C(=O)OCC(C)(C)C2 (some centres unmarked) [Example 276] | – | – | 7.00 to 8.00 | 5.00 to 6.00 | 7.00 to 8.00 | 6.00 to 7.00 | 7.00 to 8.00 | 7.00 to 8.00 | 7.00 to 8.00 | 6.00 to 7.00 | 7.00 to 8.00 | 7.00 to 8.00 | 7.00 to 8.00 | 7.00 to 8.00 | 7.00 to 8.00 | > 8.00 | > 5.30
5 | CCn1c(-c2cccnc2[C@H](C)OC)c2c3cc(ccc31)-c1cc(O)cc(c1)C[C@H](NC(=O)[C@H](C(C)C)N(C)C(=O)CN(C)C(=O)[C@@]1(C)CN1)C(=O)N1CCC[C@H](N1)C(=O)OCC(C)(C)C2 [Example 256] | – | – | 7.00 to 8.00 | 6.00 to 7.00 | 7.00 to 8.00 | 6.00 to 7.00 | 7.00 to 8.00 | 7.00 to 8.00 | > 8.00 | 6.00 to 7.00 | 7.00 to 8.00 | 7.00 to 8.00 | 7.00 to 8.00 | 7.00 to 8.00 | 7.00 to 8.00 | 7.00 to 8.00 | > 5.30
6 | CCn1c(-c2cccnc2[C@H](C)OC)c2c3cc(ccc31)-c1cc(O)cc(c1)C[C@H](NC(=O)[C@H](C(C)C)N(C)C(=O)CN(C)C(=O)[C@H]1CN1CCCC#N)C(=O)N1CCC[C@H](N1)C(=O)OCC(C)(C)C2 (some centres unmarked) [Example 273] | – | – | > 8.00 | 6.00 to 7.00 | > 8.00 | 6.00 to 7.00 | 7.00 to 8.00 | 7.00 to 8.00 | 7.00 to 8.00 | 6.00 to 7.00 | 6.00 to 7.00 | 7.00 to 8.00 | 7.00 to 8.00 | 7.00 to 8.00 | 6.00 to 7.00 | > 8.00 | > 5.30
7 | CCn1c(-c2cccnc2[C@H](C)OC)c2c3cc(ccc31)-c1cc(O)cc(c1)C[C@H](NC(=O)[C@H](C(C)C)N(C)C(=O)CN(C)C(=O)[C@H]1N[C@H]1C(F)(F)F)C(=O)N1CCC[C@H](N1)C(=O)OCC(C)(C)C2 [Example 259] | – | – | 7.00 to 8.00 | 6.00 to 7.00 | 7.00 to 8.00 | 6.00 to 7.00 | 7.00 to 8.00 | 7.00 to 8.00 | 7.00 to 8.00 | 6.00 to 7.00 | 6.00 to 7.00 | 7.00 to 8.00 | 7.00 to 8.00 | 7.00 to 8.00 | 7.00 to 8.00 | 7.00 to 8.00 | > 5.30
8 | CCn1c(-c2cccnc2[C@H](C)OC)c2c3cc(ccc31)-c1cc(O)cc(c1)C[C@H](NC(=O)[C@H](C(C)C)N(C)C(=O)CN(C)C(=O)[C@H]1N[C@H]1C1CCC1)C(=O)N1CCC[C@H](N1)C(=O)OCC(C)(C)C2 [Example 288] | – | – | 7.00 to 8.00 | 6.00 to 7.00 | 7.00 to 8.00 | 6.00 to 7.00 | 7.00 to 8.00 | 7.00 to 8.00 | 7.00 to 8.00 | 6.00 to 7.00 | 6.00 to 7.00 | 7.00 to 8.00 | 7.00 to 8.00 | 7.00 to 8.00 | 7.00 to 8.00 | 7.00 to 8.00 | > 5.30
